From patent publication US20230233569A1 (Revolution Medicines, Inc., priority 2020, published 2023)
Where two headings read alike, the source gives them in different places.

Experiments:
[1] = molecular target: NRAS G12C (Homo sapiens, UniProt P01111+P62937, G12C); test: Disruption of BRAF RBD interaction with Ras (FRET / MOA assay, with Cyclophilin A); format: biochemical
[2] = molecular target: KRAS G13C (Homo sapiens, UniProt P01116+P62937, G13C); test: as above; format: biochemical
In short: (§1)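 Cyclophilin A-dependent ternary complex assay. K-Ras loaded with nucleotide; BRAF RBD as effector. Cpd top 30 μM final, 3 h at 25 °C. Readout: TR-FRET ratio, IC50.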

[3] = molecular target: KRAS G12V (Homo sapiens, UniProt P01116+P62937, G12V); test: as above; format: biochemical
Sequence of KRAS G12V (P01116 1-169 isoform P01116-2 G12V limits assumed): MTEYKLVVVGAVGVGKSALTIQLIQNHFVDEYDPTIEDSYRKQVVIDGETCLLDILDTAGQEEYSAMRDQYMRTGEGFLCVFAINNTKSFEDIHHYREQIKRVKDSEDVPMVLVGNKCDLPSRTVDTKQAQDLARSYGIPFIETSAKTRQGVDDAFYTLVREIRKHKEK
Sequence of KRAS G12V (P62937 whole entry): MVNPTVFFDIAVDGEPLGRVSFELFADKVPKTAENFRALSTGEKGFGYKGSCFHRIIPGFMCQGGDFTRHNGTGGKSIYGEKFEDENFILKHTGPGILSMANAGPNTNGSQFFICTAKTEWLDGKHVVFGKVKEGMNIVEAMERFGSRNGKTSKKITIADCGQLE
In short: as §1

[4] = molecular target: KRAS G12C (Homo sapiens, UniProt P01116+P62937, G12C); test: as above; format: biochemical
Sequence of KRAS G12C (P01116 1-169 isoform P01116-2 G12C): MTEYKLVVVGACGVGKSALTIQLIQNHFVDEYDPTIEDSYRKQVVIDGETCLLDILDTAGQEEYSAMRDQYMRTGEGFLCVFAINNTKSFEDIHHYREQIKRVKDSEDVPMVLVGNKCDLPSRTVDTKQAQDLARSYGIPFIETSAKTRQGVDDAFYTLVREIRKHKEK
Sequence of KRAS G12C (P62937 whole entry): as the sequence (P62937 whole entry) above
In short: as §1

[5] = molecular target: KRAS G13D (Homo sapiens, UniProt P01116+P62937, G13D); test: as above; format: biochemical
Sequence of KRAS G13D (P01116 1-169 isoform P01116-2 G13D limits assumed): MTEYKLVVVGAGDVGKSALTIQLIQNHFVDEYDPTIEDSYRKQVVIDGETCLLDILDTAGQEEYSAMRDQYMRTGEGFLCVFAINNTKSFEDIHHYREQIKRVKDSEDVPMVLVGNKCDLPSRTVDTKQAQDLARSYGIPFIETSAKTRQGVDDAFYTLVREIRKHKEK
Sequence of KRAS G13D (P62937 whole entry): as the sequence (P62937 whole entry) above
In short: as §1

[6] = molecular target: KRAS G12D (Homo sapiens, UniProt P01116+P62937, G12D); test: as above; format: biochemical
Sequence of KRAS G12D (P01116 1-169 isoform P01116-2 G12D limits assumed): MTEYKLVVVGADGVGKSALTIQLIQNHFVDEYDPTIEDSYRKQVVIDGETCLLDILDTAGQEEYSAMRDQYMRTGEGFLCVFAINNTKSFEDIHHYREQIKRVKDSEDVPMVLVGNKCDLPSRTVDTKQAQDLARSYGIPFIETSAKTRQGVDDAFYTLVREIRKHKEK
Sequence of KRAS G12D (P62937 whole entry): as the sequence (P62937 whole entry) above
In short: as §1

[7] = molecular target: KRAS G12S (Homo sapiens, UniProt P01116+P62937, G12S); test: as above; format: biochemical
Sequence of KRAS G12S (P01116 1-169 isoform P01116-2 G12S limits assumed): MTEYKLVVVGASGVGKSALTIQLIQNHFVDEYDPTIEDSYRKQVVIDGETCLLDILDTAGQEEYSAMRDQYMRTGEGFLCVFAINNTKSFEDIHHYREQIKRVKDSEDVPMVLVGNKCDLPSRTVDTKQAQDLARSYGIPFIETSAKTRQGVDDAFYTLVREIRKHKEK
Sequence of KRAS G12S (P62937 whole entry): as the sequence (P62937 whole entry) above
In short: as §1

[8] = molecular target: KRAS WT (Homo sapiens, UniProt P01116+P62937); test: as above; format: biochemical
Sequence of KRAS WT (P01116 1-169 isoform P01116-2 limits assumed): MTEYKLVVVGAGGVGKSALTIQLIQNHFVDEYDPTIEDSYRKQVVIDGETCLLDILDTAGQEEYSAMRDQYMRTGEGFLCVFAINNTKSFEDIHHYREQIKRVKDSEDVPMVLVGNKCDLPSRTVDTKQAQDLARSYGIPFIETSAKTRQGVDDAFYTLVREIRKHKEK
Sequence of KRAS WT (P62937 whole entry): as the sequence (P62937 whole entry) above
In short: as §1

[9] = system: NCI-H358 (K-Ras G12C); test: CellTiter-Glo cell viability assay, 5-day treatment; format: cell-based; conditions: Homo sapiens, NCI-H358, 120 h, 5-day treatment; read-out: H358 Cell Viability assay data (K-Ras G12C, IC50)
In short: (§2)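 Seeded cells received test compound by direct dispensing. On day 5 the plates sat at room temperature approximately 30 minutes, then luminescence was measured. Data were normalized to DMSO and curve-fitted with four parameters.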

[10] = system: Capan-1 (K-Ras G12V); test: as above; format: cell-based; conditions: Homo sapiens, CAPAN-1, 120 h, 5-day treatment; read-out: Capan-1 Cell Viability assay data (K-Ras G12V, IC50)
In short: as §2

[11] = NRAS G12C, read-out: NRAS G12C FRET data IC50
[12] = read-out: KRAS G13C FRET data, IC50
[13] = KRAS G12V, read-out: KRAS G12V FRET data IC50
[14] = read-out: KRAS G12C FRET data, IC50
[15] = KRAS G13D, read-out: KRAS G13D FRET data IC50
[16] = read-out: KRAS G12D FRET data, IC50
[17] = read-out: KRAS G12S FRET data, IC50
[18] = KRAS WT, read-out: KRAS WT FRET data IC50

Sequence of KRAS G13C (P01116 1-169 isoform P01116-2 G13C): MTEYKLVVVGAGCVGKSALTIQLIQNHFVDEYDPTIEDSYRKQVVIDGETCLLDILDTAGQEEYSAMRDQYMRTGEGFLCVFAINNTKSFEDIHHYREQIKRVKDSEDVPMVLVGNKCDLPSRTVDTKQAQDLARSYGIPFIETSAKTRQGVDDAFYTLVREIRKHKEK
Sequence of KRAS G13C (P62937 whole entry): as the sequence (P62937 whole entry) above
Sequence of NRAS G12C (P01111 whole entry G12C): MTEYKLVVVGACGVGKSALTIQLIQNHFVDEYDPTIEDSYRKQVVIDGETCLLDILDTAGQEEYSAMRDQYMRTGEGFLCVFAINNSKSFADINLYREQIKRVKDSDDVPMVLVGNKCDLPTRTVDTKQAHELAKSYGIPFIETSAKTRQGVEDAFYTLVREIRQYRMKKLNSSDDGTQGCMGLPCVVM
Sequence of NRAS G12C (P62937 whole entry): as the sequence (P62937 whole entry) above

Row | Compound | IC50 [1, 11] | IC50 [2, 12] | IC50 [3, 13] | IC50 [4, 14] | IC50 [5, 15] | IC50 [6, 16] | IC50 [7, 17] | IC50 [8, 18] | IC50 [9] | IC50 [10] | IC50 ([1]; NRAS G12C FRET data IC50, NRAS G12C) | IC50 ([2]; KRAS G13C FRET data, IC50) | IC50 ([3]; KRAS G12V FRET data IC50, KRAS G12V) | IC50 ([4]; KRAS G12C FRET data, IC50) | IC50 ([5]; KRAS G13D FRET data IC50, KRAS G13D) | IC50 ([6]; KRAS G12D FRET data, IC50) | IC50 ([7]; KRAS G12S FRET data, IC50) | IC50 ([8]; KRAS WT FRET data IC50, KRAS WT)
1 | CCn1c(-c2cccnc2[C@H](C)OC)c2c3cc(ccc31)-c1cc(O)cc(c1)C[C@H](NC(=O)[C@H](C(C)C)N(C)C(=O)[C@H]1CCN(C(=O)C(C)(C)N(C)C)C1)C(=O)N1CCC[C@H](N1)C(=O)OCC(C)(C)C2 (atropisomer, axis not shown) [Example A114] | 0.01 to 0.1 µM | 0.01 to 0.1 µM | 0.01 to 0.1 µM | 0.01 to 0.1 µM | 0.01 to 0.1 µM | 0.1 to 1 µM | 0.01 to 0.1 µM | 0.01 to 0.1 µM | 0.01 to 0.1 µM | 0.01 to 0.1 µM |  |  |  |  |  |  |  | 
2 | CCn1c(-c2cccnc2[C@H](C)OC)c2c3cc(ccc31)-c1csc(n1)C[C@H](NC(=O)[C@H](C(C)C)N(C)C(=O)[C@H]1CCN(C)C1)C(=O)N1CCC[C@H](N1)C(=O)OCC(C)(C)C2 [Example A108] | 1 to 10 µM | 1 to 10 µM | > 10 µM | 1 to 10 µM | 1 to 10 µM | 1 to 10 µM | 1 to 10 µM | 1 to 10 µM |  | > 10 µM |  |  |  |  |  |  |  | 
3 | CCn1c(-c2cccnc2[C@H](C)OC)c2c3cc(ccc31)-c1cccc(c1)C[C@H](NC(=O)[C@H](C(C)C)N(C)C(=O)[C@H]1CCN(CCO)C1)C(=O)N1CCC[C@H](N1)C(=O)OCC(C)(C)C2 [Example A109] | 1 to 10 µM | 0.1 to 1 µM | > 10 µM | 1 to 10 µM | 1 to 10 µM | 1 to 10 µM | 1 to 10 µM | 1 to 10 µM |  | > 10 µM |  |  |  |  |  |  |  | 
4 | CCn1c(-c2cccnc2[C@H](C)OC)c2c3cc(ccc31)-c1cccc(c1)C[C@H](NC(=O)[C@H](C(C)C)N(C)C(=O)[C@H]1CCN(C(=O)C(C)(C)N(C)C)C1)C(=O)N1CCC[C@H](N1)C(=O)OCC(C)(C)C2 [Example A112] | 1 to 10 µM | 1 to 10 µM | 1 to 10 µM | 1 to 10 µM | 1 to 10 µM | 1 to 10 µM | 1 to 10 µM | 1 to 10 µM |  | 1 to 10 µM |  |  |  |  |  |  |  | 
5 | CCn1c(-c2cccnc2[C@H](C)OC)c2c3cc(ccc31)-c1csc(n1)C[C@H](NC(=O)[C@H](C(C)C)N(C)C(=O)[C@H]1CCN(C(=O)C(C)(C)N(C)C)C1)C(=O)N1CCC[C@H](N1)C(=O)OCC(C)(C)C2 [Example A113] | 1 to 10 µM | 1 to 10 µM | 1 to 10 µM | 1 to 10 µM | 1 to 10 µM | 1 to 10 µM | 1 to 10 µM | 1 to 10 µM |  | 1 to 10 µM |  |  |  |  |  |  |  | 
6 | CCn1c(-c2cccnc2[C@H](C)OC)c2c3cc(ccc31)-c1cc(O)cc(c1)C[C@H](NC(=O)[C@H](C(C)C)N(C)C(=O)C1CCNCC1)C(=O)N1CCC[C@H](N1)C(=O)OCC(C)(C)C2 [Example A122] |  |  |  |  |  |  |  |  |  | > 10 µM | 0.1 to 1 µM | 0.1 to 1 µM | 1 to 10 µM | 0.1 to 1 µM | 0.1 to 1 µM | 0.1 to 1 µM | 0.1 to 1 µM | 0.1 to 1 µM
7 | CCn1c(-c2cccnc2[C@H](C)OC)c2c3cc(ccc31)-c1cc(O)cc(c1)C[C@H](NC(=O)[C@H](C(C)C)N(C)C(=O)[C@H]1CCN(C(=O)[C@@]3(C)CCCN3)C1)C(=O)N1CCC[C@H](N1)C(=O)OCC(C)(C)C2 [Example A135] | 0.01 to 0.1 µM | 0.01 to 0.1 µM | 0.01 to 0.1 µM | 0.01 to 0.1 µM | 0.01 to 0.1 µM | 0.01 to 0.1 µM | 0.01 to 0.1 µM | 0.01 to 0.1 µM |  | 1 to 10 µM |  |  |  |  |  |  |  | 
8 | CCn1c(-c2cccnc2[C@H](C)OC)c2c3cc(ccc31)-c1cc(O)cc(c1)C[C@H](NC(=O)[C@H](C(C)C)N(C)C(=O)C1(CN)CC1)C(=O)N1CCC[C@H](N1)C(=O)OCC(C)(C)C2 [Example A139] | 0.01 to 0.1 µM |  | 0.01 to 0.1 µM |  |  |  | 0.01 to 0.1 µM |  | 0.1 to 1 µM | 0.1 to 1 µM |  |  |  |  |  |  |  | 
9 | C=C[C@@H]1C[C@]1(N)C(=O)N(C)[C@H](C(=O)N[C@H]1Cc2cc(O)cc(c2)-c2ccc3c(c2)c(c(-c2cccnc2[C@H](C)OC)n3CC)CC(C)(C)COC(=O)[C@@H]2CCCN(N2)C1=O)C(C)C [Example A149] | 0.1 to 1 µM | 0.01 to 0.1 µM | 0.1 to 1 µM | 0.01 to 0.1 µM | 0.1 to 1 µM | 0.1 to 1 µM | 0.1 to 1 µM | 0.01 to 0.1 µM |  | 1 to 10 µM |  |  |  |  |  |  |  | 
10 | CCn1c(-c2cccnc2[C@H](C)OC)c2c3cc(ccc31)-c1cc(O)cc(c1)C[C@H](NC(=O)[C@H](C(C)C)N(C)C(=O)C1CC13CCNCC3)C(=O)N1CCC[C@H](N1)C(=O)OCC(C)(C)C2 (stereo partly drawn) [Example A151] | 0.01 to 0.1 µM | 0.01 to 0.1 µM | 0.1 to 1 µM | 0.01 to 0.1 µM | 0.01 to 0.1 µM | 0.1 to 1 µM | 0.1 to 1 µM | 0.01 to 0.1 µM |  | > 10 µM |  |  |  |  |  |  |  | 
11 | CCn1c(-c2cccnc2[C@H](C)OC)c2c3cc(ccc31)-c1cc(O)cc(c1)C[C@H](NC(=O)[C@H](C(C)C)N(C)C(=O)[C@H]1C[C@H]1F)C(=O)N1CCC[C@H](N1)C(=O)OCC(C)(C)C2 [Example A162] |  |  | 0.01 to 0.1 µM |  |  |  |  |  | 0.01 to 0.1 µM | 0.01 to 0.1 µM |  |  |  |  |  |  |  | 
12 | CCn1c(-c2cccnc2[C@H](C)OC)c2c3cc(ccc31)-c1cc(O)cc(c1)C[C@H](NC(=O)[C@@H]1C[C@H]1C)C(=O)N1CCC[C@H](N1)C(=O)OCC(C)(C)C2 [Example A183] | 1 to 10 µM | 0.1 to 1 µM | 1 to 10 µM | 0.1 to 1 µM | 1 to 10 µM | > 10 µM | 1 to 10 µM | 1 to 10 µM |  | 1 to 10 µM |  |  |  |  |  |  |  | 
13 | C=CC(=O)N1CC[C@H](C(=O)Nc2ccccc2C(=O)N[C@H]2Cc3cc(O)cc(c3)-c3ccc4c(c3)c(c(-c3cnccc3COC)n4CC)CC(C)(C)COC(=O)[C@@H]3CCCN(N3)C2=O)C1 [Example A229] | 0.01 to 0.1 µM | 0.01 to 0.1 µM | 0.1 to 1 µM | 0.01 to 0.1 µM | 0.01 to 0.1 µM | 0.1 to 1 µM | 0.1 to 1 µM | 0.1 to 1 µM |  | 1 to 10 µM |  |  |  |  |  |  |  | 
14 | CCn1c(-c2cccnc2[C@H](C)OC)c2c3cc(ccc31)-c1cc(O)cc(c1)C[C@H](NC(=O)[C@H](C(C)C)N(C)C(=O)[C@H]1CCN(C(=O)[C@]3(C)CCCN3C)C1)C(=O)N1CCC[C@H](N1)C(=O)OCC(C)(C)C2 [Example A342] | 0.01 to 0.1 µM |  |  |  |  |  |  |  | 0.01 to 0.1 µM | 0.1 to 1 µM |  |  |  |  |  |  |  | 
